The values that follow come from patent US20090005363A1, “Organic Compounds” (priority 2005, published 2009).

Where a name gives a salt, the structure may show the parent alone.

The experiment deals with mGluR5 (Homo sapiens, UniProt P41594). In words: inhibition of the glutamate induced elevation of intracellular Ca2+ concentration. The following applies: for inhibition at 10 µM: read-out: mGluR5 Activity inh. at 10 μM [%]; for mGluR5 Activity inh. at 10 μM [%]: inhibition of glutamate induced elevation of intracellular Ca2+ concentration at 10 μM.
Sequence of mGluR5 (P41594 21-1180 isoform P41594-2 limits assumed): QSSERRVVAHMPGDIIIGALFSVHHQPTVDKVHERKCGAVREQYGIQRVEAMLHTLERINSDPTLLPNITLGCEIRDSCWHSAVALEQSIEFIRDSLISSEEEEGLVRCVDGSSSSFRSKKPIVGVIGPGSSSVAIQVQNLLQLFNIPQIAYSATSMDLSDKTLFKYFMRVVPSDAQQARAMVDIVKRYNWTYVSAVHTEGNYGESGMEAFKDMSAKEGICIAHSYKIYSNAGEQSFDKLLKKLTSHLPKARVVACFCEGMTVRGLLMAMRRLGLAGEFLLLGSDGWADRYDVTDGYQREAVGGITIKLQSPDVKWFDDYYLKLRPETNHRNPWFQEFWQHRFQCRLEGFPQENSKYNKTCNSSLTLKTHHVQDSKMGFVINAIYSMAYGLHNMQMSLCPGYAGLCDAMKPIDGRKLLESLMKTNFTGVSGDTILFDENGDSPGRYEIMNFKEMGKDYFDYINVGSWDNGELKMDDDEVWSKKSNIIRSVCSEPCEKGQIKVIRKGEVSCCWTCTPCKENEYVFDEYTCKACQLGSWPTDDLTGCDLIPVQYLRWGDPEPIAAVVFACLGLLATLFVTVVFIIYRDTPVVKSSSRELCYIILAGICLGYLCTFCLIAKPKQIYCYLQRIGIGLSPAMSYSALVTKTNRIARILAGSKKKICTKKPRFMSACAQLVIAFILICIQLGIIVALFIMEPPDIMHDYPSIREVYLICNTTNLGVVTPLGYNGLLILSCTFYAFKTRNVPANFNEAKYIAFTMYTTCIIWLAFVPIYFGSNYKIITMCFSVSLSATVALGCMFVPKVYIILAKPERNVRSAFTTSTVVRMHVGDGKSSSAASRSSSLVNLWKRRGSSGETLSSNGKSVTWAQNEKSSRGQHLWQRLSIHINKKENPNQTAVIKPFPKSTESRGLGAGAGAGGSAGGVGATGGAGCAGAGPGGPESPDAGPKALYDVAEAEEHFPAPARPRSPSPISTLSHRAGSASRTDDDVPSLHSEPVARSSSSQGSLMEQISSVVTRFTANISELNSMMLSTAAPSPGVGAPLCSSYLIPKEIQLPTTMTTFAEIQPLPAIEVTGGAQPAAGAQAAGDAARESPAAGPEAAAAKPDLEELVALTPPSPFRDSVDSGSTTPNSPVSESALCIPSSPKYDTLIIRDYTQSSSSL

Source text: This can be determined in vitro for example at recombinant human metabotropic glutamate receptors, especially PLC-coupled subtypes thereof such as mGluR5, using different procedures like, for example, measurement of the inhibition of the agonist induced elevation of intracellular Ca^2+ concentration in accordance with L. P. Daggett et al., Neuropharm.

With `CCOc1cc(C(=O)N2CCCCC2)cnc1Nc1ccc(C)nc1` [Compound 6.7, [5-Ethoxy-6-(6-methyl-pyridin-3-ylamino)-pyridin-3-yl]-piperidin-1-yl-methanone], the inhibition at 10 µM is 35%.

In the case of `C/C=C\C1CCCCN1C(=O)c1cnc(Nc2ccc(C)nc2)c(Cl)c1` (stereo not drawn) [Compound 4.56, [5-Chloro-6-(6-methyl-pyridin-3-ylamino)-pyridin-3-yl]-[((Z)-2-propenyl)-piperidin-1-yl]-methanone], the “mGluR5 Activity inh. at 10 μM [%]” value is given as 97%.

`COCCN(CCOC)C(=O)c1ccc(Nc2ccc(Cl)cc2)nc1` [Compound 1.4, 6-(4-Chloro-phenylamino)-N,N-bis-(2-methoxy-ethyl)-nicotinamide hydrochloride]: the inhibition at 10 µM stood at 37%.

On to `Cc1ccc(Nc2ncc(C(=O)N3CCCC[C@H]3C)cc2Cl)cn1` [Compound 4.24, [5-Chloro-6-(6-methyl-pyridin-3-ylamino)-pyridin-3-yl]-((R)-2-methyl-piperidin-1-yl)-methanone], for which the inhibition at 10 µM worked out at 92%.

For the molecule `Cc1ccc(Nc2ncc(C(=O)N3CCCCC3CC(C)F)cc2Cl)cn1` (stereo not drawn) [Compound 4.64, [5-Chloro-6-(6-methyl-pyridin-3-ylamino)-pyridin-3-yl]-[2-(2-fluoro-propyl)-piperidin-1-yl]-methanone], the inhibition at 10 µM was 99%.

Take `Cc1ccc(Nc2ccc(C(=O)N3CCCC(C)C3)cn2)cc1` (stereo not drawn) [Compound 1.13]: the “mGluR5 Activity inh. at 10 μM [%]” value was found to be 96%.

On to `CCCC1OCCCN1C(=O)c1cnc(Nc2ccc(C)nc2)c(Cl)c1` (stereo not drawn) [Compound 4.68, [5-Chloro-6-(6-methyl-pyridin-3-ylamino)-pyridin-3-yl]-(2-propyl-[1,3]oxazinan-3-yl)-methanone], for which the inhibition at 10 µM came out at 99%.

For `Cc1ccc(Nc2ncc(C(=O)N3CCCCC3CCO)cc2Cl)cn1` (stereo not drawn) [Compound 4.61, [5-Chloro-6(6-methyl-pyridin-3-ylamino)-pyridin-3-yl]-[2-(2-hydroxy-ethyl)-piperidin-1-yl]-methanone], the inhibition at 10 µM stood at 79%.

For `O=C(c1ccc(Nc2ccc(Cl)cc2)nc1)N1CC2CCC(CC2)C1` [Compound 4.9, (3-Aza-bicyclo[3.2.2]non-3-yl)-[6-(4-chloro-phenylamino)-pyridin-3-yl]-methanone], the inhibition at 10 µM was 37%.

In the case of `Cc1ccc(Nc2ccc(C(=O)N3CCCCCCC3)cn2)cn1` [Compound 4.16, Azocan-1-yl-[6-(6-methyl-pyridin-3-ylamino)-pyridin-3-yl]-methanone], the inhibition at 10 µM was determined as 81%.

Turning to `CC1CCCN(C(=O)c2cnc(Nc3ccc(Cl)cc3)nc2)C1` (racemic) [Compound 5.5, rac-[2-(4-Chloro-phenylamino)-pyrimidin-5-yl]-(3-methyl-piperidin-1-yl)-methanone], the inhibition at 10 µM is 96%.

`CC[C@@H]1CCCCN1C(=O)c1cnc(Nc2ccc(C(F)(F)F)nc2)c(Cl)c1` [Compound 2.23, [5-Chloro-6-(6-trifluoromethyl-pyridin-3-ylamino)-pyridin-3-yl]-((R)-2-ethyl-piperidin-1-yl)-methanone]: the inhibition at 10 µM was 100%.

Turning to `COc1ccc(Nc2ccc(C(=O)N3CCCC(C)C3)cn2)cc1` (stereo not drawn) [Compound 1.14, [6-(4-Methoxy-phenylamino)-pyridin-3-yl]-(3-methyl-piperidin-1-yl)-methanone hydrochloride], the inhibition at 10 µM was 94%.

For the molecule `Cc1ccc(Oc2ncc(C(=O)N3CCCC(C)C3)cc2Cl)cn1` (racemic) [Compound 3.1, rac-[5-Chloro-6-(6-methyl-pyridin-3-yloxy)-pyridin-3-yl]-(3-methyl-piperidin-1-yl)-methanone], the inhibition at 10 µM is 94%.

With `CCOc1cc(C(=O)N2CCCCCC2)cnc1Nc1ccc(Cl)cc1` [Compound 6.5, Azepan-1-yl-[6-(4-chloro-phenylamino)-5-ethoxy-pyridin-3-yl]-methanone], the inhibition at 10 µM turned out to be 33%.

Take `Cc1ccc(Nc2ccc(C(=O)N3CCCC(C)C3)cn2)cn1` (racemic) [Compound 4.13, rac-(3-Methyl-piperidin-1-yl)-[6-(6-methyl-pyridin-3-ylamino)-pyridin-3-yl]-methanone]: the inhibition at 10 µM is 97%.

Take `Cc1ccc(Nc2ncc(C(=O)N3CCCC[C@H]3C(C)C)cc2Cl)cn1` [Compound 4.30, [5-Chloro-6-(6-methyl-pyridin-3-ylamino)-pyridin-3-yl]-((S)-2-isopropyl-piperidin-1-yl)-methanone]: the inhibition at 10 µM turned out to be 96%.

Turning to `CCN(CC)C(=O)c1ccc(Nc2ccc(OC)cc2)nc1` [Compound 1.3, N,N-Diethyl-6-(4-methoxy-phenylamino)-nicotinamide hydrochloride], the inhibition at 10 µM turned out to be 75%.

`Cc1ccc(Nc2ncc(C(=O)N3CCCC[C@@H]3C)cc2Cl)cn1` [Compound 4.23, [5-Chloro-6-(6-methyl-pyridin-3-ylamino)-pyridin-3-yl]-((S)-2-methyl-piperidin-1-yl)-methanone]: the inhibition at 10 µM was found to be 95%.

Regarding `O=C(c1ccc(Nc2ccc(Cl)cc2)nc1)N1C2CCC1CC(O)C2` (stereo not drawn) [Compound 4.11, [6-(4-Chloro-phenylamino)-pyridin-3-yl]-(3-hydroxy-8-aza-bicyclo[3.2.1]oct-8-yl)-methanone], the inhibition at 10 µM came to 51%.

Regarding `COCCC1CCCCN1C(=O)c1cnc(Nc2ccc(C)nc2)c(Cl)c1` (stereo not drawn) [Compound 4.71, [5-Chloro-6-(6-methyl-pyridin-3-ylamino)-pyridin-3-yl]-[2-(2-methoxy-ethyl)-piperidin-1-yl]-methanone], the inhibition at 10 µM stood at 99%.

`CC1CC(C)CN(C(=O)c2ccc(Nc3ccc(Cl)cc3)nc2)C1` (stereo not drawn) [Compound 4.5, [6-(4-Chloro-phenylamino)-pyridin-3-yl]-(3,5-dimethyl-piperidin-1-yl)-methanone]: the inhibition at 10 µM was 88%.

For the molecule `O=C(c1ccc(Nc2ccc(Cl)cc2)nc1)N1CCCC(F)(F)C1` [Compound 4.3, [6-(4-Chloro-phenylamino)-pyridin-3-yl]-(3,3-difluoro-piperidin-1-yl)-methanone], the inhibition at 10 µM was 92%.

Turning to `Cc1ccc(Nc2ncc(C(=O)N3CCCCC3C3CCCO3)cc2Cl)cn1` (stereo not drawn) [Compound 4.44, [5-Chloro-6-(6-methyl-pyridin-3-ylamino)-pyridin-3-yl]-[2-(tetrahydro-furan-2-yl)-piperidin-1-yl]-methanone], the inhibition at 10 µM came to 99%.

Consider `Cc1ccc(Nc2ncc(C(=O)N3CCC[C@H](C)[C@@H]3C)cc2Cl)cn1` [Compound 4.21, [5-Chloro-6-(6-methyl-pyridin-3-ylamino)-pyridin-3-yl]-((2S,3S)-2,3-dimethyl-piperidin-1-yl)-methanone], for which the inhibition at 10 µM was determined as 99%.

Consider `COc1cc(C(=O)N2CCCCC2)cnc1Nc1ccc(Cl)cc1` [Compound 6.3, [6-(4-Chloro-phenylamino)-5-methoxy-pyridin-3-yl]-piperidin-1-yl-methanone], for which the inhibition at 10 µM is 95%.

In the case of `Cc1ncc(Nc2ncc(C(=O)N3CCCCCC3)cc2Cl)cn1` [Compound 2.18, Azepan-1-yl-[5-chloro-6-(2-methyl-pyrimidin-5-ylamino)-pyridin-3-yl]-methanone], the inhibition at 10 µM worked out at 100%.

In the case of `Cc1ccc(Nc2ncc(C(=O)N3CCCCC3C(C)C)cc2Cl)cn1` (stereo not drawn) [Compound 4.28, [5-Chloro-6-(6-methyl-pyridin-3-ylamino)-pyridin-3-yl]-(2-isopropyl-piperidin-1-yl)-methanone], the inhibition at 10 µM stood at 93%.

With `Cc1ccc(Oc2ncc(C(=O)N3CCCCCC3)cc2Cl)cn1` [Compound 3.3, Azepan-1-yl-[5-chloro-6-(6-methyl-pyridin-3-yloxy)-pyridin-3-yl]-methanone], the inhibition at 10 µM worked out at 90%.

Take `O=C(c1ccc(Nc2ccc(Cl)c(F)c2)nc1)N1CCCCC1` [Compound 1.5, [6-(4-Chloro-3-fluoro-phenylamino)-pyridin-3-yl]-piperidin-1-yl-methanone]: the inhibition at 10 µM was 90%.

On to `O=C(c1ccc(Nc2ccc(OC(F)(F)F)cc2)nc1)N1CCCCC1` [Compound 1.8, Piperidin-1-yl-[6-(4-trifluoromethoxy-phenylamino)-pyridin-3-yl]-methanone], for which the inhibition at 10 µM came out at 54%.

For `Cc1ccc(Nc2ncc(C(=O)N3CCCCC3c3cccnc3)cc2Cl)cn1` (stereo not drawn) [Compound 4.43, [5-Chloro-6-(6-methyl-pyridin-3-ylamino)-pyridin-3-yl]-(3,4,5,6-tetrahydro-2H-[2,3′]bipyridinyl-1-yl)-methanone], the inhibition at 10 µM came to 100%.

On to `O=C(c1ccc(Nc2ccc(Cl)cc2)nc1)N1CCCCCC1` [Compound 4.2, Azepan-1-yl-[6-(4-chloro-phenylamino)-pyridin-3-yl]-methanone], for which the inhibition at 10 µM was determined as 97%.

`CCOc1ccc(Nc2ncc(C(=O)N3CCCCC3)cc2Cl)cn1` [Compound 2.9, [5-Chloro-6-(6-ethoxy-pyridin-3-ylamino)-pyridin-3-yl]-piperidin-1-yl-methanone]: the inhibition at 10 µM stood at 100%.

As for `COc1ccc(Nc2ccc(C(=O)N3CCOCC3)cn2)cc1` [Compound 1.18, [6-(4-Methoxy-phenylamino)-pyridin-3-yl]-morpholin-4-yl-methanone hydrochloride], the inhibition at 10 µM came to 32%.

As for `CC1(C)CCCN(C(=O)c2ccc(Nc3ccc(Cl)cc3)nn2)C1` [Compound 8.3, [6-(4-Chloro-phenylamino)-pyridazin-3-yl]-(3,3-dimethyl-piperidin-1-yl)-methanone], the inhibition at 10 µM was found to be 82%.

As to `O=C(c1ccc(Nc2ccc(Cl)cc2)nc1)N1CCOCC1` [Compound 1.17, [6-(4-Chloro-phenylamino)-pyridin-3-yl]-morpholin-4-yl-methanone hydrochloride], the inhibition at 10 µM came out at 83%.

For `COc1ccc(Nc2ncc(C(=O)N3CCCCCC3)cc2Cl)cn1` [Compound 2.7, Azepan-1-yl-[5-chloro-6-(6-methoxy-pyridin-3-ylamino)-pyridin-3-yl]-methanone], the inhibition at 10 µM was 98%.

For the molecule `O=C(c1cnc(Nc2ccc(Cl)cc2)nc1)N1CCCCC1` [Compound 5.4, [2-(4-Chloro-phenylamino)-pyrimidin-5-yl]-piperidin-1-yl-methanone], the inhibition at 10 µM came out at 83%.
